According to the NIST ThermoML archive (doi:10.1016/j.jct.2014.01.030):
± gives the expanded uncertainty stated by the source.

Tests used:
[1] = refractive index (Na D-line) (dimensionless); conditions: 101.33 kPa, Liquid, Standard Abbe refractometry
[2] = molar heat capacity at constant pressure; conditions: 101.33 kPa, Liquid, Small sample (50 mg) DSC
[3] = Liquid; for speed of sound: Sing-around technique in a fixed-path interferometer; for mass density: Vibrating tube method; for viscosity: Capillary tube (Ostwald / Ubbelohde) method
[4] = xn = mol fraction of the nth substance listed; conditions: 101 kPa, Liquid, x1 = 1; for speed of sound: Sing-around technique in a fixed-path interferometer; for mass density: Vibrating tube method

## CCn1cc[n+](C)c1.COS(=O)(=O)[O-] [1-ethyl-3-methylimidazolium methylsulfate]
[1]; 293.15 K
  refractive index: 1.48252 ± 0.00037
[1]; 298.15 K
  refractive index: 1.48125 ± 0.00037
[1]; 303.15 K
  refractive index: 1.47998 ± 0.00037
[1]; 308.15 K
  refractive index: 1.47868 ± 0.00037
[1]; 313.15 K
  refractive index: 1.4774 ± 0.00037
[1]; 318.15 K
  refractive index: 1.47612 ± 0.00037
[1]; 323.15 K
  refractive index: 1.4748 ± 0.00037
[1]; 328.15 K
  refractive index: 1.4735 ± 0.00037
[1]; 333.15 K
  refractive index: 1.47218 ± 0.00037
[1]; 338.15 K
  refractive index: 1.47086 ± 0.00037
[1]; 343.15 K
  refractive index: 1.46954 ± 0.00037
[2]; 288.15 K
  molar heat capacity at constant pressure: 331.48 ± 14 J/K/mol
[2]; 298.15 K
  molar heat capacity at constant pressure: 340.77 ± 14 J/K/mol
[2]; 308.15 K
  molar heat capacity at constant pressure: 346.99 ± 15 J/K/mol
[3]; 288.15 K, 101.33 kPa
  speed of sound: 1781 ± 2 m/s
  mass density: 1287.57 ± 0.47 kg/m3
[3]; 293.15 K, 101.33 kPa
  viscosity: 85.22 ± 1.9 mPa·s
  speed of sound: 1768 ± 2 m/s
  mass density: 1284.26 ± 0.47 kg/m3
[3]; 298.15 K, 101.33 kPa
  viscosity: 67.06 ± 1.4 mPa·s
  speed of sound: 1756 ± 2 m/s
  mass density: 1280.81 ± 0.47 kg/m3
[3]; 303.15 K, 101.33 kPa
  viscosity: 54.39 ± 1.1 mPa·s
  speed of sound: 1744 ± 2 m/s
  mass density: 1277.28 ± 0.46 kg/m3
[3]; 308.15 K, 101.33 kPa
  viscosity: 44.68 ± 0.94 mPa·s
  speed of sound: 1732 ± 2 m/s
  mass density: 1273.97 ± 0.46 kg/m3
[3]; 313.15 K, 101.33 kPa
  viscosity: 37.1 ± 0.78 mPa·s
  speed of sound: 1720 ± 2 m/s
  mass density: 1270.57 ± 0.46 kg/m3
[3]; 318.15 K, 101.33 kPa
  viscosity: 31.27 ± 0.66 mPa·s
  speed of sound: 1709 ± 2 m/s
  mass density: 1267.18 ± 0.46 kg/m3
[3]; 323.15 K, 101.33 kPa
  viscosity: 26.81 ± 0.56 mPa·s
  speed of sound: 1697 ± 2 m/s
  mass density: 1263.81 ± 0.45 kg/m3
[3]; 328.15 K, 101.33 kPa
  viscosity: 22.74 ± 0.48 mPa·s
  speed of sound: 1686 ± 2 m/s
  mass density: 1260.45 ± 0.45 kg/m3
[3]; 333.15 K, 101.33 kPa
  viscosity: 19.71 ± 0.41 mPa·s
  speed of sound: 1675 ± 2 m/s
  mass density: 1257.09 ± 0.45 kg/m3
[3]; 338.15 K, 101.33 kPa
  viscosity: 17.25 ± 0.36 mPa·s
  speed of sound: 1663 ± 2 m/s
  mass density: 1253.75 ± 0.44 kg/m3
[3]; 343.15 K, 101.33 kPa
  viscosity: 15.16 ± 0.32 mPa·s
  speed of sound: 1652 ± 2 m/s
  mass density: 1250.42 ± 0.44 kg/m3

## CCC(C)O (configuration not stated) [butan-2-ol]
[1]; 298.15 K
  refractive index: 1.39487 ± 0.00033
[3]; 288.15 K, 101 kPa
  speed of sound: 1249 ± 2 m/s
  mass density: 810.96 ± 0.16 kg/m3
[3]; 298.15 K, 101 kPa
  speed of sound: 1213 ± 2 m/s
  mass density: 802.82 ± 0.16 kg/m3
[3]; 308.15 K, 101 kPa
  speed of sound: 1177 ± 2 m/s
  mass density: 794.34 ± 0.16 kg/m3

## CCC(C)O (configuration not stated) [butan-2-ol] + CCn1cc[n+](C)c1.COS(=O)(=O)[O-]
[4]; 288.15 K
  speed of sound: 1249 ± 2 m/s
  mass density: 810.96 ± 0.16 kg/m3
[4]; 298.15 K
  speed of sound: 1213 ± 2 m/s
  mass density: 802.82 ± 0.16 kg/m3
[4]; 308.15 K
  speed of sound: 1177 ± 2 m/s
  mass density: 794.34 ± 0.16 kg/m3

## CCO [ethanol]
[1]; 298.15 K
  refractive index: 1.35907 ± 0.00031
[3]; 288.15 K, 101 kPa
  speed of sound: 1179 ± 2 m/s
  mass density: 794.04 ± 0.14 kg/m3
[3]; 298.15 K, 101 kPa
  speed of sound: 1145 ± 2 m/s
  mass density: 785.52 ± 0.15 kg/m3
[3]; 308.15 K, 101 kPa
  speed of sound: 1111 ± 2 m/s
  mass density: 776.87 ± 0.15 kg/m3

## CCO [ethanol] + CCn1cc[n+](C)c1.COS(=O)(=O)[O-]
[4]; 288.15 K
  speed of sound: 1179 ± 2 m/s
  mass density: 794.04 ± 0.14 kg/m3
[4]; 298.15 K
  speed of sound: 1145 ± 2 m/s
  mass density: 785.52 ± 0.15 kg/m3
[4]; 308.15 K
  speed of sound: 1111 ± 2 m/s
  mass density: 776.87 ± 0.15 kg/m3

## CO [methanol]
[1]; 298.15 K
  refractive index: 1.32649 ± 0.00031
[3]; 288.15 K, 101 kPa
  speed of sound: 1137 ± 2 m/s
  mass density: 796.46 ± 0.14 kg/m3
[3]; 298.15 K, 101 kPa
  speed of sound: 1104 ± 2 m/s
  mass density: 787.1 ± 0.15 kg/m3
[3]; 308.15 K, 101 kPa
  speed of sound: 1071 ± 2 m/s
  mass density: 777.64 ± 0.15 kg/m3

## CO [methanol] + CCn1cc[n+](C)c1.COS(=O)(=O)[O-]
[4]; 288.15 K
  speed of sound: 1137 ± 2 m/s
  mass density: 796.46 ± 0.14 kg/m3
[4]; 298.15 K
  speed of sound: 1104 ± 2 m/s
  mass density: 787.1 ± 0.15 kg/m3
[4]; 308.15 K
  speed of sound: 1071 ± 2 m/s
  mass density: 777.64 ± 0.15 kg/m3

## CCCCCO [pentan-1-ol]
[1]; 298.15 K
  refractive index: 1.40774 ± 0.00037
[3]; 288.15 K, 101 kPa
  speed of sound: 1310 ± 2 m/s
  mass density: 818.25 ± 0.24 kg/m3
[3]; 298.15 K, 101 kPa
  speed of sound: 1276 ± 2 m/s
  mass density: 810.99 ± 0.24 kg/m3
[3]; 308.15 K, 101 kPa
  speed of sound: 1243 ± 2 m/s
  mass density: 803.61 ± 0.24 kg/m3

## CCCCCO [pentan-1-ol] + CCn1cc[n+](C)c1.COS(=O)(=O)[O-]
[4]; 288.15 K
  speed of sound: 1310 ± 2 m/s
  mass density: 818.25 ± 0.24 kg/m3
[4]; 298.15 K
  speed of sound: 1276 ± 2 m/s
  mass density: 810.99 ± 0.24 kg/m3
[4]; 308.15 K
  speed of sound: 1243 ± 2 m/s
  mass density: 803.61 ± 0.24 kg/m3

## CCCO [propan-1-ol]
[1]; 298.15 K
  refractive index: 1.38286 ± 0.00031
[3]; 288.15 K, 101 kPa
  speed of sound: 1243 ± 2 m/s
  mass density: 808.48 ± 0.14 kg/m3
[3]; 298.15 K, 101 kPa
  speed of sound: 1208 ± 2 m/s
  mass density: 800.5 ± 0.14 kg/m3
[3]; 308.15 K, 101 kPa
  speed of sound: 1174 ± 2 m/s
  mass density: 792.38 ± 0.14 kg/m3

## CCCO [propan-1-ol] + CCn1cc[n+](C)c1.COS(=O)(=O)[O-]
[4]; 288.15 K
  speed of sound: 1243 ± 2 m/s
  mass density: 808.48 ± 0.14 kg/m3
[4]; 298.15 K
  speed of sound: 1208 ± 2 m/s
  mass density: 800.5 ± 0.14 kg/m3
[4]; 308.15 K
  speed of sound: 1174 ± 2 m/s
  mass density: 792.38 ± 0.14 kg/m3

## CC(C)O [propan-2-ol]
[1]; 298.15 K
  refractive index: 1.37523 ± 0.00031
[3]; 288.15 K, 101 kPa
  speed of sound: 1177 ± 2 m/s
  mass density: 790.01 ± 0.15 kg/m3
[3]; 298.15 K, 101 kPa
  speed of sound: 1141 ± 2 m/s
  mass density: 781.67 ± 0.15 kg/m3
[3]; 308.15 K, 101 kPa
  speed of sound: 1106 ± 2 m/s
  mass density: 773.03 ± 0.15 kg/m3

## CC(C)O [propan-2-ol] + CCn1cc[n+](C)c1.COS(=O)(=O)[O-]
[4]; 288.15 K
  speed of sound: 1177 ± 2 m/s
  mass density: 790.01 ± 0.15 kg/m3
[4]; 298.15 K
  speed of sound: 1141 ± 2 m/s
  mass density: 781.67 ± 0.15 kg/m3
[4]; 308.15 K
  speed of sound: 1106 ± 2 m/s
  mass density: 773.03 ± 0.15 kg/m3
